Data taken from patent publication US20130244875A1, “METHODS AND COMPOSITIONS FOR IMPROVING PLANT HEALTH” (priority 2006, published 2013).
Where two headings read alike, the source gives them in different places.

Legend:
[1] = tested on: PR5; assay: Induction of PR5 (northern blot) by dicamba or DCSA; type: in vivo, soybean; settings: probe specific to PR5; procedures as for PR2
[2] = 24 hours at 30° C., RP-HPLC
Description: Leaf strip and whole plant studies were performed using liquid chromatography assays to determine metabolism of dicamba to DCSA in soybeans. Leaf tissue was removed from wild-type soybean plants and soybean plants transgenic for the DMO gene and were cut into 1 mm strips, the strips then incubated in 25 mM Tris pH 7.5 with radiolabeled dicamba (14C dicamba) for 24 hours at 30° C. After incubation, the leaf tissue was homogenized with a spinning pestle, acidified, solids pelleted by centrifugation and an aliquot of the supernatant analyzed by RP-HPLC equipped with a radiation detector.

[3] = tested on: PR-2, i.e., β-1,3-glucanase; assay: Induction of PR2 (northern blot) in DMO soybean sprayed with dicamba or DCSA; type: in vivo
Description: A 14 hour minimum photoperiod was provided with supplemental light at about 600 μE (micro-Einsteins) as needed. Trials were established in a randomized block design randomized by rate with 4 to 6 replications of each treatment.
All herbicide applications were made with the track sprayer using a Teejet® 9501E flat fan nozzle (Spraying Systems Co, Wheaton, Ill.) with air pressure set at a minimum of 24 psi (pounds per square inch), or 165 kpa (kilopascals)). The spray nozzle was kept at a height of about 16 inches above the top of plant material for spraying. The spray volume was 10 gallons per acre or 93 liters per hectare. Applications were made when plants had reached V-3 stage.
Events carrying a DMO transgene in their genome were grown and treated with dicamba (Clarity®, BASF) at 1 lb/Acre at Post-V3 stage. Leaf samples were harvested after 0, 3, 8, 24, 48, 72 hrs after treatment (HAT) and frozen for further analysis. In another experiment, DMO-containing plants were sprayed with either dicamba or DCSA at 0.25, 0.5 and 1 lb/Acre rate and tissue samples were collected 24 HAT. RNA was extracted and analyzed by northern blot analysis using PR-2, i.e., β-1,3-glucanase as a probe. PR-2 is a pathogenesis-related protein known to degrade […] and thus provide protection against fungal pathogens (U.S. Pat. No. 5,670,706 and Uknes et al., 1992).

[4] = tested on: transgenic soybean; assay: Soybean yield field trials with dicamba treatments
Description: The yield enhancing-benefit of DSCA was tested by growing non-transgenic and transgenic plants and applying dicamba to transgenic plants and harvesting the seeds. Non-transgenic and transgenic soybean seeds were planted near the beginning of the growing season in several locations at the time of best possible growth conditions such as soil moisture, temperature, and seeding depth. Across all locations seeds were planted under split-plot design with dicamba treatments as whole-plot effects and events as split-plot effects. The design details were as follows: 6 locations, 2 replications/location, 2 rows/plot, row length 12 feet (+3 ft alley), 9 seeds/foot, 108 seeds/row, 5 events (events 1-4 and a fifth event that was segregating); and 4 treatments as shown below in Table 4. In all, 240 plots were planted at 6 locations (40 per location).
Four non-transgenic border rows were planted all around the trial using a known commercial line such as A3525. Optimum production and management practices known in the art were followed. Maximum pest control and disease control was practiced as needed to prevent confounding effects of dicamba applications. The field was irrigated as needed according to standard practices.
The treatments were: untreated (Untrt); 1 lb/A dicamba at planting followed by 1 lb/A dicamba at V3 growth stage (1×1); 2 lb/A dicamba at planting followed by 2 lb/A dicamba at V3 growth stage (2×2); and 1 lb/A dicamba at planting followed by 1 lb/A dicamba at V3 growth stage followed by 1 lb/A dicamba at R1 stage (1×1×1).

[5] = tested on: transgenic soybean seeds containing the DMO gene; settings: 22° C., 1 low, 2 moderate, 3 high, N=10
Description: Transgenic soybean seeds containing the DMO gene were germinated in the presence of 100 or 200 mM sodium chloride (NaCl, salt). […] A diglycoamine salt of dicamba (Clarity) was applied to 113.5 g samples of soy in a water based slurry that contained an agricultural dye. Slurry and dye rates were 8 and 0.5 fl oz/cwt. Aliquots of each dicamba solution were added to seeds contained in a glass jar and agitated. After uniform coverage was attained, seeds were placed on towels and allowed to dry. Non-DMO soybeans were treated at rates of 0, 0.5, 2.5, and 5.0 g ai/100 kg. DMO soybeans were treated with 0, 0.5 and 2.5 g ai/100 kg. Seed germination was scored DAT (2 days after treatment) or 5DAT (days after treatment) at 22° C. The germination rate was scored as 1—low, 2—moderate, 3—high for each treatment, N=10.

[6] = tested on: soybean plants transgenic for the DMO gene; settings: DMO transgenic soybean sprayed at up to 2.5 lb/A; various times; RP-HPLC
Description: For whole plant assays, soybean plants transgenic for the DMO gene were treated with 14C dicamba by spraying the plants with a solution containing the 14C dicamba at a rate up to 2.5 lb/A. Leaf samples from the treated plants were collected at various times after treatment and analyzed for the DMO metabolites by RP-HPLC. The leaf tissue was homogenized with a spinning pestle, acidified, solids pelleted by centrifugation and an aliquot of the supernatant analyze by RP-HPLC equipped with a radiation detector.

[7] = 200 mM NaCl, 0.5 g ai/100 kg dicamba seed treatment, 0.0 dicamba 1
[8] = 200 mM NaCl, 2.5 g ai/100 kg dicamba seed treatment, 0.0 dicamba 1

Structure (SMILES): COc1c(Cl)ccc(Cl)c1C(=O)O [Dicamba, 3,6-dichloro-2-methoxybenzoic acid]
- induction of PR5 [1]: Induction of PR5
- metabolism of radiolabeled dicamba ([2]; leaf strips of transgenic DMO gene containing soybean): metabolized to DCSA and other polar metabolites
- metabolism of radiolabeled dicamba ([2]; leaf strips of wild-type soybean): not in the wild-type soybean plants
- time of peak induction of PR2 ([3]; DMO soybean, dicamba 1 lb/Acre at Post-V3): 48 h
- induction of PR2 at various time points ([3]; DMO soybean, dicamba 1 lb/Acre at Post-V3, 0-72 HAT, no induction in untreated plants): induction of PR2
- induction of PR2 at various rates ([3]; two transgenic soybean lines, 0.25, 0.5 and 1 lb/Acre, 24 hrs after treatment, no induction in untreated or water only): induction of PR2
- yield compared with unsprayed controls ([4]; DMO soybean, dicamba 1.5 lb ae/Acre Pre, Post or both, in 4/5 events and 13/15 treatments, 6 locations): an increase or equivalent yield to unsprayed controls
- increase in seed yield ([4]; three DMO soybean events, dicamba treatments vs untreated, average of 15 locations): up to 4.6%
- maturity of dicamba treated plants compared with untreated plant ([4]; transgenic soybean, agronomic and efficacy trials): no delay in maturity
- Germination rating 2DAT ([5]; 100 mM NaCl, 0.5 g ai/100 kg dicamba seed treatment, 0.0 dicamba 1): 2
- Germination rating 5DAT ([5]; 100 mM NaCl, 0.5 g ai/100 kg dicamba seed treatment, 0.0 dicamba 2): 3
- Germination rating 2DAT ([5]; 100 mM NaCl, 2.5 g ai/100 kg dicamba seed treatment, 0.0 dicamba 1): 2
- Germination rating 5DAT ([5]; 100 mM NaCl, 2.5 g ai/100 kg dicamba seed treatment, 0.0 dicamba 2): 3
- Germination rating 2DAT [5, 7]: 1.5
- Germination rating 5DAT [5, 7]: 2
- Germination rating 2DAT [5, 8]: 1.5
- Germination rating 5DAT [5, 8]: 1
- metabolites of 14C dicamba in leaf samples [6]: DCSA is produced as a metabolite of dicamba
